Source: PubChem BioAssay AID1996
Values after ≈ are worked out from the molar mass of the structure shown.

Settings: buffer; pH 7.4; 200.0 µM

| solubility kinetic [µg/mL] | SMILES |
| --- | --- |
| 1.1 (≈ 3.88 µM) | Cc1[nH]c2ccc3ccccc3c2c(=O)c1C/C=C/Cl |
| 0.8 (≈ 2.12 µM) | CCS(=O)(=O)c1ccc(O)c(NC(=O)Nc2ccc(C(C)(C)C)cc2)c1 |
| < 0.3 | CCc1nc2cc(Cl)c(Cl)cc2nc1CC |
| 36.4 (≈ 107 µM) | O=C(CC12CC3CC(CC(Br)(C3)C1)C2)NC1CCCC1 |
| 4.7 (≈ 15 µM) | O=C1NC(=Nc2ccc(O)cc2)S/C1=C\C=C\c1ccco1 |
| > 42.7 | O=C(CC1SCCNC1=O)Nc1ccc(Cl)cc1 (stereo not given) |
| > 46.4 | CC(=O)N/C(=C\c1ccccc1)C(=O)OCc1ccc(C)cc1 |
| 47 (≈ 132 µM) | O=C(OC(C(=O)c1c[nH]c2ccccc12)c1ccccc1)c1cnccn1 (stereo not given) |
| 46.1 (≈ 139 µM) | COc1ccc(NC(=O)CSc2ccc3c(c2)OCCO3)cc1 |
| 10.4 (≈ 34.5 µM) | O=C(COC(=O)/C=C/c1ccccc1)NC1CCCCCC1 |
| > 45.7 | CC1CCC(NC(=O)CN2C(=O)C3CC=CCC3C2=O)CC1 (stereo not given) |
| > 47.3 | CCCNC(=O)C(=O)Nc1cc2c3c(c1)CCC(=O)N3CCC2 |
| 36.6 (≈ 107 µM) | Cc1ccc(NC(=O)C2CCN(C(=O)c3cccs3)CC2)c(C)c1 |
| > 40 | Fc1ccccc1CNC(=S)NC1CCCCC1 |
| 2.1 (≈ 7.34 µM) | Cc1ccc(CONC(=O)c2ccc([N+](=O)[O-])cc2)cc1 |
| > 56.7 | CSc1nc(C)c(C(=O)C[n+]2ccccc2C)cc1C#N.[Br-] |
| > 53.1 | S=C(NCC1CCCO1)N1CCN(Cc2ccccc2Cl)CC1 (stereo not given) |
| > 46.7 | Cc1cccc(N2CCCn3c2nc2c3c(=O)[nH]c(=O)n2C)c1 |
| 28.2 (≈ 89.7 µM) | CC1CCN(C(=O)c2cc(-c3ccc4c(c3)OCO4)on2)CC1 |
| < 0.5 | Cc1ccc(OCc2cnc(Cl)s2)c(C)c1 |
| 37.1 (≈ 132 µM) | Cc1cccc(N(C)S(=O)(=O)c2c(C)noc2C)c1 |
| 44.9 (≈ 141 µM) | CCOC(=O)CSc1nc2cc(C(F)(F)F)cnc2n1C |
| > 53.5 | CC(=O)Nc1ccc(N2C(=O)CC(Sc3nccc(C)n3)C2=O)cc1 (stereo not given) |
| > 32.3 | Cc1cc(O)cc(=O)n1Cc1ccccc1 |

| solubility kinetic [µg/mL] | SMILES |
| --- | --- |
| 40.3 (≈ 74.9 µM) | CC(C)[C@H](NC(=O)c1ccccc1Cl)C(=O)OCC(=O)Nc1ccc(S(=O)(=O)N2CCOCC2)cc1 |
| > 38.9 | COc1ccc(CC(=O)NCCc2cnc[nH]2)cc1 |
| 19.2 (≈ 68.7 µM) | O=C(CCc1ccccc1)NC1CCCc2ccccc21 (stereo not given) |
| 33.3 (≈ 140 µM) | COC(=O)c1c(O)cc(=O)n2c1CCCCC2 |
| 14.5 (≈ 45.8 µM) | COC(=O)c1ccc(C2NC(=O)c3c(sc(C)c3C)N2)cc1 (stereo not given) |
| 4.4 (≈ 12.5 µM) | Cc1cc(C(=O)OCC(=O)Nc2ccccc2Br)c(C)o1 |
| 33.7 (≈ 103 µM) | COC(=O)Cn1cnc2scc(-c3ccc(C)c(C)c3)c2c1=O |
| 1.9 (≈ 6.54 µM) | CCOc1ccccc1NC(=S)NC(=O)c1ccco1 |
| > 32.9 | Cc1cccc(C)c1OCC(=O)NC1CC1 |
| > 48.1 | COc1cc(F)ccc1S(=O)(=O)n1c(C)nc2ccccc21 |
| 19.5 (≈ 80.5 µM) | Cc1ccc(-c2csc3nc[nH]c(=O)c23)cc1 |
| 5 (≈ 11.7 µM) | COc1cc(NC(=O)c2ccc(S(=O)(=O)N(C)c3ccccc3)cc2)cc(OC)c1 |
| 0.5 (≈ 1.81 µM) | Cc1ccc(NC(=S)NC(=O)C2CCCC2)cc1C |
| > 44 | COC(=O)c1ccc(NC(=S)N2CCN(C)CC2)cc1 |
| 10.6 (≈ 35.5 µM) | COc1ccc(NC(=O)CNC(=O)Cc2ccccc2)cc1 |
| 7.2 (≈ 25.5 µM) | Cc1ccc(NC(=O)Cn2c(=O)oc3ccccc32)cc1 |
| 3.1 (≈ 9.16 µM) | O=[N+]([O-])c1ccccc1S(=O)(=O)N1CCCC(C(F)(F)F)C1 (stereo not given) |
| 13 (≈ 41.1 µM) | Cn1c(CNc2ccc(Br)cc2)nc2ccccc21 |
| 33.1 (≈ 114 µM) | CCOc1ncccc1C(=O)NCc1ccccc1Cl |
| < 0.4 | O=C(Cc1ccc(F)cc1)Nc1nc(-c2ccc(F)cc2)cs1 |
| 17.3 (≈ 49.1 µM) | COc1ccc(CCC(=O)N2CCN(c3cccc(C)c3C)CC2)cc1 |
| 8.8 (≈ 24.6 µM) | CC(NC(=O)CN1CCN(c2ccc(Cl)cc2)CC1)c1ccccc1 (stereo not given) |
| 40.1 | COc1cccc2c(Nc3ccccc3C)cc(C)nc12.Cl |
| 3.7 (≈ 12.2 µM) | O=S(=O)(Nc1ccncc1)c1ccc(Cl)c(Cl)c1 |

| solubility kinetic [µg/mL] | SMILES |
| --- | --- |
| > 47.2 | Cc1ccc(-c2csc3ncn(CC(=O)O)c(=O)c23)cc1C |
| > 35.7 | Cc1ccnc(N2C(=O)c3ccccc3C2=O)c1 |
| > 46.6 | OC(CN1CCOCC1)Cn1c2ccccc2c2ccccc21 (stereo not given) |
| 2.3 (≈ 6.82 µM) | Cc1cccc(-c2noc(CNC(=O)c3ccc4c(c3)OCO4)n2)c1 |
| 44.1 (≈ 145 µM) | CSCC(=O)NC1CCCN(C2Cc3ccccc3C2)C1 (stereo not given) |
| > 46 | CCCCc1ccc(NC(=O)N[C@@H](CC(C)C)C(=O)O)cc1 |
| > 39.3 | O=C(NCC(O)c1ccccc1)Nc1cccs1 (stereo not given) |
| > 47 | CN(C)Cc1c(O)ccc2occ(C(=O)c3ccc(F)cc3)c12 |
| 0.4 (≈ 1.21 µM) | Cc1cccc(C)c1Nc1c(-c2ccccc2O)nc2ncccn12 |
| 39 (≈ 138 µM) | COc1cc(NC(=O)COC(C)=O)cc(OC)c1OC |
| 0.6 (≈ 2.49 µM) | Clc1nc2ccccc2nc1-c1ccccc1 |
| > 45.2 | O=C(CCS(=O)(=O)c1ccc(F)cc1)N1CCOCC1 |
| 47.5 (≈ 139 µM) | CC(=O)N(Cc1ccccc1)Cc1nc2sc(C)c(C)c2c(=O)[nH]1 |
| 5 (≈ 18.9 µM) | Cc1ccc(NCc2ccc(O)c3ncccc23)cc1 |
| > 72.1 | Cc1c(NC(=O)c2ccc(S(=O)(=O)Nc3ccccc3F)cc2)c(=O)n(-c2ccccc2)n1C |
| 0.8 (≈ 2.47 µM) | CCOc1ccc(NC(=O)Nc2nc(SCC)ns2)cc1 |
| > 42.8 | CN1C(=O)c2ccccc2Sc2ccc(C(=O)O)cc21 |
| 28.2 (≈ 94.5 µM) | CC(=O)C1=C(c2ccccc2)NC(=O)NC1c1cccs1 (stereo not given) |
| 0.8 (≈ 2.47 µM) | Cc1cccc(C(CC(=O)N2CCCCC2)c2ccccc2)c1O (stereo not given) |
| > 36.6 | COC(=O)c1nn(-c2ccc(C)cc2)ccc1=O |
| < 0.3 | Cc1ccc(O)c(NC(=S)NC(=O)/C=C/c2ccccc2)c1 |
| > 51.7 | CC1CCCCN1C(=O)COC(=O)c1ccc(N2CCCC2=O)cc1 (stereo not given) |
| 5.3 (≈ 17.1 µM) | Cc1cc(C(=O)NCc2cccc(Cl)c2)c2ccccc2n1 |
| 31.5 (≈ 99.9 µM) | Cc1ccc(C)c(OCCC(=O)NCCc2ccc(F)cc2)c1 |

| solubility kinetic [µg/mL] | SMILES |
| --- | --- |
| > 40.6 | CC(C)CCc1c(O)nc(SCC(C)C)[nH]c1=O |
| < 0.3 | Cc1nc(SCc2ccccc2F)c2oc3ccccc3c2n1 |
| > 41.9 | O=C(NC1CCCC1)c1c(O)nc2sccn2c1=O |
| 5.7 (≈ 15.2 µM) | CC1C(c2ccccc2)N(C)C(c2ccccc2)CC1(O)c1ccc(F)cc1 (stereo not given) |
| 13.4 (≈ 41.1 µM) | O=C(O)C1C2C=CC(C2)C1C(=O)Nc1ccc(Cl)c(Cl)c1 (stereo not given) |
| > 42 | O=[N+]([O-])c1ccc(S(=O)(=O)Nc2ncccn2)cc1 |
| > 42.6 | CCOC(=O)c1csc(NC(=O)C2=COCCO2)n1 |
| 34.6 (≈ 147 µM) | COc1ccccc1CC(=O)N1CCOCC1 |
| > 52.4 | CC(C)=CC(=O)Nc1ccc(S(=O)(=O)Nc2onc(C)c2C)cc1 |
| 2 (≈ 6.33 µM) | O=C(COC(=O)c1ccc(Cl)c(Cl)c1)NC1CCCC1 |
| < 0.6 | Cc1cc2c(cc1C)C(c1cccc(F)c1)CC(=O)N2 (stereo not given) |
| 29.8 (≈ 120 µM) | CCCCN(CCCC)c1ncnc2nc[nH]c12 |
| > 47.8 | CC(=O)Nc1ccc(S(=O)(=O)NC(C)c2ccccc2)cc1 (stereo not given) |
| 3.8 (≈ 13 µM) | Cc1ccc(Nc2nc(Cl)nc(NC(C)(C)C)n2)cc1 |
| > 41.6 | Cc1ccc(F)cc1NC(=O)CSc1ncccn1 |
| 0.6 (≈ 1.95 µM) | Cc1csc2c(=O)sc(NC(=O)c3cccs3)nc12 |
| 40.8 (≈ 135 µM) | COc1cccc(C(=O)NCCCNC(=O)c2ccco2)c1 |
| 42.5 (≈ 143 µM) | COc1cc2c(cc1OC)C(c1ccc(C)cc1)NC(=O)C2 (stereo not given) |
| > 49.6 | COc1ccc(-n2c(SCC(N)=O)nnc2-c2ccco2)cc1 |
| 4.5 (≈ 15.3 µM) | Cc1ccc(N(C(=O)Nc2ccccc2)C2=NCCC2)cc1 |
| 45.5 | CC1CCN(CC(O)COC2CC(C)CC(C)(C)C2)CC1.Cl (stereo not given) |
| 13.5 (≈ 34.5 µM) | O=C(COC(=O)CSc1ccc(Cl)cc1)Nc1ccc2[nH]c(=O)[nH]c2c1 |
| 46.7 (≈ 150 µM) | CSc1nsc(SCC(=O)NCc2ccccc2)n1 |
| > 52.1 | COC(=O)c1ccc(NC(=O)CCCN2C(=O)NC(C)(C)C2=O)cc1 |

| solubility kinetic [µg/mL] | SMILES |
| --- | --- |
| 0.6 (≈ 1.85 µM) | Cc1ccc(OCC(=O)Nc2ccc3c(c2)C(=O)NC3=O)c(C)c1 |
| 34.9 (≈ 130 µM) | CCc1nc2ccccc2n1CC1CC1(Cl)Cl (stereo not given) |
| > 52.7 | CN(Cc1ccccc1)C(=O)COC(=O)c1cc(=O)c2ccccc2o1 |
| > 47.1 | Cn1cnnc1SCC(=O)Nc1ccc(OC(F)F)cc1 |
| > 62.6 | Cc1ccc(S(=O)(=O)NCC(=O)OCC(=O)N2CC(=O)Nc3ccccc32)cc1 |
| > 36.7 | CC[C@@H]1C(=O)OC[C@@H]1Cc1cncn1C.Cl |
| > 52 | CC(C)CN(C(=O)CSc1nncn1C)C1CCS(=O)(=O)C1 (stereo not given) |
| 16.4 (≈ 40.5 µM) | CCN(Cc1ccc(Cl)s1)C(=O)c1cccc(OCc2c(C)noc2C)c1 |
| 0.5 (≈ 1.63 µM) | CCc1cccc(NC(=O)Cn2cc(C=O)c3ccccc32)c1 |
| > 43.1 | O=C(CNC(=O)c1ccc(F)cc1)NCc1ccccn1 |
| 1.9 (≈ 5.89 µM) | COc1ccc(CCNC(=O)c2cc(=O)[nH]c3ccccc23)cc1 |
| 29.8 (≈ 122 µM) | CSc1ccccc1NC(=O)c1ccccn1 |
| 42.1 (≈ 141 µM) | CC(C)c1ccccc1NC(=O)C1C2C=CC(C2)C1C(=O)O (stereo not given) |
| > 33.5 | CCC(C)NC(=O)c1ccccc1SC (stereo not given) |
| 18.9 (≈ 38.8 µM) | CCN(C(=O)COc1ccc(N(C)S(=O)(=O)c2ccc(NC(C)=O)cc2)cc1)C1CCCCC1 |
| 14.5 (≈ 53 µM) | CC(CCc1ccccc1)NC(=O)CCC1CCCC1 (stereo not given) |
| 29.6 (≈ 104 µM) | Cn1cccc1C(=O)OCc1nc2ccccc2c(=O)[nH]1 |
| > 48.1 | CCOC(=O)/C(C#N)=C/C1=C(N2CCOCC2)C(C)(C)OCC1 |
| < 0.3 | O=C(Nc1ccc(Nc2ccccc2)cc1)c1ccc(Cl)cc1[N+](=O)[O-] |
| 13.4 (≈ 47.3 µM) | Cc1cc(=O)[nH]c(SCc2cccc3cccnc23)n1 |
| 4.6 (≈ 13.2 µM) | O=C(CCNc1ccc(Br)cc1)c1cccc([N+](=O)[O-])c1 |
| 38.6 (≈ 133 µM) | CN(CCc1ccccn1)C(=O)Nc1cccc(Cl)c1 |
| 0.6 (≈ 2.02 µM) | O=C(Cc1ccc([N+](=O)[O-])cc1)Nc1ccc2c(c1)CCC2 |

| SMILES | solubility kinetic [µg/mL] |
| --- | --- |
| CCOP(=O)(OCC)C(O)c1ccc(N(C)C)cc1 (stereo not given) | > 43.1 |
